Experimental data as given in patent US20160009752A1, “[…]-OXIMINO-AMINOALKYLETHERS AND PROCESS FOR PREPARATION THEREOF, USEFUL AS ANTIDIABETIC AND […] AGENTS” (COUNCIL OF SCIENTIFIC & INDUSTRIAL RESEARCH, priority 2013, published 2016).
Where two headings read alike, the source gives them in different places. Marks after values point to notes of the source that are not given here.

Experiments:
Type in all cases: in vivo
[1] = system: high fructose high fat fed Syrian golden hamsters; experiment: Antidyslipidemic activity in high fructose high fat fed Syrian golden hamsters
Method: Male Syrian golden hamsters weighing 100-120 g were divided into groups each containing six animals. Dyslipidemia was produced by feeding the animals with high fructose high fat diet (60% fructose, 13% fat) for 30 to 40 days. Dyslipidemic hamsters were divided into groups based on their Serum lipid profile. The dyslipidemic animals had free access to HFD and water throughout the experimental period. The fine suspension of 14b was fed orally at a dose of 30 mg/kg for 7 days to the animals. Control animals were given drug vehicle only, served as sham treated control. Body weight and diet intake of each animal group were recorded daily to check the effect of the test samples on food intake and body weight of the animals. At the end of the experiment period i.e. on day 8th, the blood of each animal was withdrawn from retro-orbital plexus. After keeping the tubes for 15 min. in cold, Serum was separated. Biochemical analysis of Serum was performed on the same day for triglycerides (TG), total cholesterol (TC) and HDL-cholesterol and LDL-cholesterol contents using Cobas Integra 400 plus analyzer kits. All statistical analysis will be performed with Graph Pad Prism Software. One way ANOVA, all pair wise multiple comparison procedure (Tukey test). Data will be reported as mean±SEM.

db/db mice = experiment: db/db mice: blood glucose, OGTT, serum lipid and insulin; conditions: for decrease in plasma insulin levels / enhancement of HDL-cholesterol level / lowering of serum triglycerides level (TG) / lowering of total cholesterol (T-Chol) level: 15 days
Method: Male C57BL/KsJ-db/db mice (8 to 12 weeks old, 35-45 g body weight) were procured from National Animal Laboratory Centre (NALC) of Central Drug Research Institute (CDRI), Lucknow, India. Animals were housed in polypropylene cages, in controlled environment (temperature 25±2° C.; humidity 50-60%; light 300 lux at floor level with regular 12 h light-12 h dark cycle; noise level 50 decibel; ventilation 10-15 air changes per hour). They were provided with a standard laboratory diet (Dayal Industry, Barabanki, Lucknow) unless stated otherwise and had free access to water. The animals were allocated into groups of 5 animals in each. Prior to start of the test sample feeding, a vehicle training period was followed from day −3 to day 0 during which all the animals were given vehicle (1% gum acacia) at a dose volume of 10 ml/kg body weight. At day 0 the animals having blood glucose level between 180 to 300 mg/di were selected and divided into three groups containing 5 animals in each. One group was considered as control group while the other group one was treatment group. The treatment groups were given suspensions of 14b at 1.0 and 3.0 mg/kg body weight, dose, respectively. The control group was given an equal amount of vehicle. All the animals had free access to fresh water and normal diet. Random blood glucose of each mouse was checked daily at 11.00. […] Blood has been withdrawn from the retro-orbital plexus of mice eye for the estimation of lipid profile and insulin.
In type 2 diabetes, elevated blood glucose level due to defect in peripheral glucose disposal results in hyperglycaemia. To observe the improvement on hyperglycaemia 14b was orally gavaged for 15 consecutive days and after dosing blood glucose of control and treated group were measured.

sucrose loaded rat = experiment: Sucrose loaded rat model (SLM), oral tolerance test; parameters: % Antihyperglycemic activity SLM: concentration or dose not given beside the values
From the text: On the day of experiment blood glucose of all the overnight fasted animals was checked by Glucostrips (Roche) using Glucometer (ACCU-CHEK II; Roche Diagnostics, USA). […] Animals were divided into groups consisting of five animals in each. […] The test compounds and standard drug was always prepared in the vehicle 1% gum acacia. […] Food (not water) was removed from the cages during the experimental period. […] Comparing the AUC of test sample or drug treated groups compared to control group determined the percent improvement in OGTT by test sample and standard drugs and termed as antihyperglycaemic activity. Statistical analysis between the groups was done by employing Students t test

[2] = Pharmacokinetic study after oral and intravenous dose in rats; parameters: Vd/F / Vd: unit not given here; conditions: rat
From the text: In order to study its bioavailability, the method of its quantitative determination in plasma matrices in rat was developed and validated. […] The method was applied in the analysis of PK samples obtained after oral and intravenous dose administration in rats.

C/C(=N\OCCN1CCCCC1)[C@H]1CC[C@H]2[C@@H]3CC=C4C[C@@H](O)CC[C@]4(C)[C@H]3CC[C@]12C [Compound 14b, 3β-Hydroxy-pregna-5-en-20-one-O-(2-piperidin-1-yl-ethyl)-oxime]
enhancement of lipoprotein lipase ([1]; 30 mg/kg oral): 19.4%
enhancement of serum HDL-cholesterol ([1]; 30 mg/kg oral): 17.8%
lowering of LDL-cholesterol (LDL-C) level ([1]; 30 mg/kg oral): 32.3%
lowering of non-esterified fatty acid (NEFA) ([1]; 30 mg/kg oral): 12.3%
lowering of serum glycerol level ([1]; 30 mg/kg oral): 25.7%
lowering of serum triglycerides level (TG) ([1]; 30 mg/kg oral): 32.8%
lowering of total cholesterol (T-Chol) level ([1]; 30 mg/kg oral): 23.1%
Chol, change vs HFD control (in parentheses) ([1]; 30 mg/kg p.o., 7 days): (−23.1)* %
Glycerol, change vs HFD control (in parentheses) ([1]; 30 mg/kg p.o., 7 days): (−25.7) %
HDL-C, change vs HFD control (in parentheses) ([1]; 30 mg/kg p.o., 7 days): (+17.8) %
LDL-C, change vs HFD control (in parentheses) ([1]; 30 mg/kg p.o., 7 days): (−32.3)* %
Lipoprotein lipase, change vs HFD control (in parentheses) ([1]; 30 mg/kg p.o., 7 days): (+19.4) %
NEFA, change vs HFD control (in parentheses) ([1]; 30 mg/kg p.o., 7 days): (−12.3) %
TG, change vs HFD control (in parentheses) ([1]; 30 mg/kg p.o., 7 days): (−32.8)* %
Chol ([1]; 30 mg/kg p.o., 7 days, serum): 257.2 ± 22.4 mg/dL
Glycerol ([1]; 30 mg/kg p.o., 7 days, serum): 1004.9 ± 40.2 µmol/L
HDL-C ([1]; 30 mg/kg p.o., 7 days, serum): 168.2 ± 8.90 mg/dL
LDL-C ([1]; 30 mg/kg p.o., 7 days, serum): 179.6 ± 13.2 mg/dL
Lipoprotein lipase ([1]; 30 mg/kg p.o., 7 days, serum): 36.3 ± 3.90 U/L
NEFA ([1]; 30 mg/kg p.o., 7 days, serum): 5.70 ± 0.42 mmol/L
TG ([1]; 30 mg/kg p.o., 7 days, serum): 501.8 ± 45.7 mg/dL
effect on body weight, in words ([1]; vs control group, FIG. 10): effectively inhibited the rise in body weight
decrease in plasma insulin levels (db/db mice; 1.0 mg/kg oral): 4.03%
enhancement of HDL-cholesterol level (db/db mice; 1.0 mg/kg oral): 6.18%
lowering of serum triglycerides level (TG) (db/db mice; 1.0 mg/kg oral): 13.8%
lowering of total cholesterol (T-Chol) level (db/db mice; 1.0 mg/kg oral): 13.3%
decrease in plasma insulin levels (db/db mice; 3.0 mg/kg oral): 8.06%
enhancement of HDL-cholesterol level (db/db mice; 3.0 mg/kg oral): 13.6%
lowering of serum triglycerides level (TG) (db/db mice; 3.0 mg/kg oral): 18.9%
lowering of total cholesterol (T-Chol) level (db/db mice; 3.0 mg/kg oral): 16.7%
blood glucose levels vs vehicle treated group, in words (db/db mice; 1.0 and 3.0 mg/kg oral, 15 consecutive days, FIG. 8): decline in their blood glucose levels
% Antihyperglycaemic activity (OGTT improvement) (db/db mice; day 10th, 1.0 mg/kg): 10.3%
Blood glucose profile, 0 min post glucose load (db/db mice; day 10th, 1.0 mg/kg): 211.6 ± 11.8 mg/dL
Blood glucose profile, 30 min post glucose load (db/db mice; day 10th, 1.0 mg/kg): 559.8 ± 24.8 mg/dL
Blood glucose profile, 60 min post glucose load (db/db mice; day 10th, 1.0 mg/kg): 568.0 ± 12.9 mg/dL
Blood glucose profile, 90 min post glucose load (db/db mice; day 10th, 1.0 mg/kg): 502.8 ± 23.6 mg/dL
Blood glucose profile, 120 min post glucose load (db/db mice; day 10th, 1.0 mg/kg): 437.8 ± 14.1 mg/dL
decline in fasting blood glucose level (db/db mice; day 10th, 1.0 mg/kg): ~21.2%
% Antihyperglycaemic activity (OGTT improvement) (db/db mice; day 10th, 3.0 mg/kg): 15.1%
Blood glucose profile, 0 min post glucose load (db/db mice; day 10th, 3.0 mg/kg): 190.2 ± 12.9 mg/dL
Blood glucose profile, 30 min post glucose load (db/db mice; day 10th, 3.0 mg/kg): 542.2 ± 24.1 mg/dL
Blood glucose profile, 60 min post glucose load (db/db mice; day 10th, 3.0 mg/kg): 523.2 ± 22.7 mg/dL
Blood glucose profile, 90 min post glucose load (db/db mice; day 10th, 3.0 mg/kg): 482.0 ± 20.5 mg/dL
Blood glucose profile, 120 min post glucose load (db/db mice; day 10th, 3.0 mg/kg): 414.0 ± 9.4 mg/dL
decline in fasting blood glucose level (db/db mice; day 10th, 3.0 mg/kg): ~29.1%
% Antihyperglycaemic activity (OGTT improvement) (db/db mice; day 15th, 1.0 mg/kg): 16.9%
Blood glucose profile, 0 min post glucose load (db/db mice; day 15th, 1.0 mg/kg): 183.6 ± 7.86 mg/dL
Blood glucose profile, 30 min post glucose load (db/db mice; day 15th, 1.0 mg/kg): 499.2 ± 36.1 mg/dL
Blood glucose profile, 60 min post glucose load (db/db mice; day 15th, 1.0 mg/kg): 560.6 ± 14.6 mg/dL
Blood glucose profile, 90 min post glucose load (db/db mice; day 15th, 1.0 mg/kg): 468.8 ± 19.5 mg/dL
Blood glucose profile, 120 min post glucose load (db/db mice; day 15th, 1.0 mg/kg): 383.8 ± 8.46 mg/dL
decline in fasting blood glucose level (db/db mice; day 15th, 1.0 mg/kg): around 25.5%
% Antihyperglycaemic activity (OGTT improvement) (db/db mice; day 15th, 3.0 mg/kg): 24.5%
Blood glucose profile, 0 min post glucose load (db/db mice; day 15th, 3.0 mg/kg): 160.2 ± 6.88 mg/dL
Blood glucose profile, 30 min post glucose load (db/db mice; day 15th, 3.0 mg/kg): 458.8 ± 16.6 mg/dL
Blood glucose profile, 60 min post glucose load (db/db mice; day 15th, 3.0 mg/kg): 513.2 ± 13.1 mg/dL
Blood glucose profile, 90 min post glucose load (db/db mice; day 15th, 3.0 mg/kg): 420.0 ± 13.2 mg/dL
Blood glucose profile, 120 min post glucose load (db/db mice; day 15th, 3.0 mg/kg): 348.0 ± 13.2 mg/dL
decline in fasting blood glucose level (db/db mice; day 15th, 3.0 mg/kg): ~35.1%
Blood glucose profile, 0 min post glucose load (sucrose loaded rat; 100 mg/kg): 94.2 ± 2.6 mg/dL
Blood glucose profile, 30 min post glucose load (sucrose loaded rat; 100 mg/kg): 120.8 ± 2.1 mg/dL
Blood glucose profile, 60 min post glucose load (sucrose loaded rat; 100 mg/kg): 101.4 ± 2.9 mg/dL
Blood glucose profile, 90 min post glucose load (sucrose loaded rat; 100 mg/kg): 89.4 ± 3.3 mg/dL
Blood glucose profile, 120 min post glucose load (sucrose loaded rat; 100 mg/kg): 69.4 ± 2.3 mg/dL
% Antihyperglycemic activity SLM (sucrose loaded rat; Table 2, sucrose loaded rat): 24.4%
anti-diabetic activity, in words (sucrose loaded rat; all the models including db/+ mice models): better anti-diabetic activity
absorption, in words ([2]; oral dosing): slow absorption
time at which plasma concentrations peaked post-dose ([2]; oral dosing): ≥ 10 h
AUC(0-t) ([2]; plasma, intravenous route): 826 ± 88.7 ng·h/mL
C0 ([2]; plasma, intravenous route): 166 ± 90.2 ng/mL
MRT ([2]; plasma, intravenous route): 25.3 ± 1.99 h
clearance ([2]; plasma, intravenous route): 206 mL/min/kg
half-life ([2]; plasma, intravenous route, read-out: T1/2 (converted)): 15.4 ± 1.25 h
Vd ([2]; plasma, intravenous route, read-out: Vz): 268 ± 11.3
AUC(0-inf) ([2]; plasma, oral route): 1210 ± 166 ng·h/mL
CL/F ([2]; plasma, oral route): 603 mL/min/kg
Cmax ([2]; plasma, oral route): 40.4 ± 7.03 ng/mL
MRT ([2]; plasma, oral route): 23.2 ± 1.31 h
bioavailability ([2]; plasma, oral route): 33.6%
half-life ([2]; plasma, oral route, read-out: T1/2 (converted)): 14.3 ± 0.95 h
Vd/F ([2]; plasma, oral route, read-out: Vz/F): 739 ± 87.1
half-life ([2]; plasma, route not stated, read-out: elimination half-life): > 14 h
clearance, in words [2]: large clearance
bio-availability, in words ([2]; in vivo): good bio-availability
